Measurements taken from publication PMC7529893, “Structural basis for substrate recognition and chemical inhibition of oncogenic MAGE ubiquitin ligases” (Nature Communications, 2020).
Entries after “also recorded” stand apart in the source; their conditions may differ.

System: PCF11 degradation by MAGE-A11 in HEK293FT cells
Assay: PCF11 degradation by MAGE-A11, immunoblot in HEK293FT cells
Assay type: cell-based
Description: HEK293FT, HeLa and DAOY cells were grown in DMEM (Gibco) supplemented with 10% (v/v) FBS (Hyclone), 2 mM L-glutamine, 100 units/ml penicillin, 100 units/ml streptomycin, and […] amphotericin B (Invitrogen). HEK293FT and DAOY cells were transfected with either HA-FLAG-vector, FLAG-MAGE-A11 wild-type or SBC mutants using Effectene (QIAGEN) according to the manufacturer’s protocol in 6 cm^2 plates. After 48 h, cells were selected with 1 µg/ml puromycin (Sigma) over 2 weeks.
For western blotting, samples in SDS sample buffer were resolved on SDS-PAGE gels and then transferred to nitrocellulose membranes prior to blocking in TBST with 5% (w/v) milk powder or 3% (w/v) bovine serum albumin and probing with primary and secondary antibodies (GE Healthcare). Primary antibodies were: anti-Myc (Sigma, #C3956), anti-FLAG (Sigma, #F3165), anti-HUWE1 (Novus Biologicals, #NB 100-652), anti-PCF11 (Bethyl Laboratories, #A303-706A), anti-GAPDH (Cell Signaling Technology, #2118), anti-TRIM28 (Abcam, #ab22553), anti-AMPKα1 (Cell Signaling Technology, #2795), and anti-MMS19 (Proteintech, #16015-1-AP) and Tb-anti-GST (Invitrogen, #PV3551). Secondary antibodies were: Donkey Anti-Rabbit IgG (GE Healthcare, NA934V) and Sheep Anti-Mouse IgG (GE Healthcare, NA931V). […]

FC(F)(F)c1ccc2c(NCCCNCc3ccc4[nH]ccc4c3)ccnc2c1 [SJ000521054-02]
PCF11 protein levels / PCF11 degradation (HEK293FT cells stably expressing FLAG-MAGE-A11, 24 h, listed as SJ521054): blocks PCF11 degradation by MAGE-A11; also recorded: stabilized PCF11 protein levels | PCF11 protein levels (HEK293FT vector control cells, 24 h): had no effect
